In assay [1] the target is T1, 5-hydroxytryptamine receptor 1A (Rattus norvegicus, UniProt P19327).
T1 sequence (P19327 whole entry): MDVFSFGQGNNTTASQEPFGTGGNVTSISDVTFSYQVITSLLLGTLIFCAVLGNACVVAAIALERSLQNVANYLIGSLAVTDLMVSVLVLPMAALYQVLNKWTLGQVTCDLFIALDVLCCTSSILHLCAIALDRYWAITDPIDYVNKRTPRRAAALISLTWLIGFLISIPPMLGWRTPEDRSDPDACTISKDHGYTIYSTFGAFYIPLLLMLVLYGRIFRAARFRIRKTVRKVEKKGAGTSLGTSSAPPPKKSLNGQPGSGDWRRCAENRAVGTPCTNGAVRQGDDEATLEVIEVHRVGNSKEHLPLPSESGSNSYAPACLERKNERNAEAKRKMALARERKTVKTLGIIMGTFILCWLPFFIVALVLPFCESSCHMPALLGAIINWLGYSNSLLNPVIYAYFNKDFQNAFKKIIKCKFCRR
Nature of the assay: Binding affinity against 5-hydroxytryptamine 1A receptor of rat hippocampus using [3H]8-OH-DPAT. Type of assay: tissue-based.

Assay [2] concerns the target T2, 5-hydroxytryptamine receptor 2C (Rattus norvegicus, UniProt P08909).
T2 sequence (P08909 whole entry): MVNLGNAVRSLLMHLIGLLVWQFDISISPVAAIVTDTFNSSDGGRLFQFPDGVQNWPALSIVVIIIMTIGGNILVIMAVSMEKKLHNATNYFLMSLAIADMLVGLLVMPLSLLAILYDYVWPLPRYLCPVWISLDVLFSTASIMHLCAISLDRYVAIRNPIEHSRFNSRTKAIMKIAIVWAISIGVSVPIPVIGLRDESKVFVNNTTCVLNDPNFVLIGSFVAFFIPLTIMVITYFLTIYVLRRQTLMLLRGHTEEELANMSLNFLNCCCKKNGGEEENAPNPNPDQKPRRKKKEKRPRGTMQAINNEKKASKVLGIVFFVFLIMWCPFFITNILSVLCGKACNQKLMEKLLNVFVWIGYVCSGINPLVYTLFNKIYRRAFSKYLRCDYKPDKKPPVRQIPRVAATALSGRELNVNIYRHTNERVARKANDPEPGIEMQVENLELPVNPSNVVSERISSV
Nature of the assay: Binding affinity against 5-hydroxytryptamine 2C receptor in rat choroid plexus using [3H]N-methyl-mesulergine.

The target in assay [3] is 5-hydroxytryptamine receptor 2A (Rattus norvegicus, UniProt P14842). Nature of the assay: Binding affinity for 5-hydroxytryptamine 2A receptor in rat cortex using [3H]ketanserin. Type of assay: tissue-based.
5-hydroxytryptamine receptor 2A, sequence (P14842 whole entry): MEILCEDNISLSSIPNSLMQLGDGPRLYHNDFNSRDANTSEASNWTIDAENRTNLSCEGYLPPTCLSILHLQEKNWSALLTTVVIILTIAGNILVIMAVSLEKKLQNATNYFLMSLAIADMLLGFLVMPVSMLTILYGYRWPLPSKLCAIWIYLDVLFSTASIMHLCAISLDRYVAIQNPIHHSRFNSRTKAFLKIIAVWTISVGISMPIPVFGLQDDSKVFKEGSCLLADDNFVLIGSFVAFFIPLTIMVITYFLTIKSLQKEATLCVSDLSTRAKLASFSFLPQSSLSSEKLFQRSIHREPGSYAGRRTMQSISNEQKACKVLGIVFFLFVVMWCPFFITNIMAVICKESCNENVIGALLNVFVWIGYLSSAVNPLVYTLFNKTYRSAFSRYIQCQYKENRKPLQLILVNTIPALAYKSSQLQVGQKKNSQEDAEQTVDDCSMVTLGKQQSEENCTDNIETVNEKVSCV
Another assay concerns the target D(2) dopamine receptor (Rattus norvegicus, UniProt P61169). Nature of the assay: Binding affinity against D2 receptor in rat striatum using [3H]raclopride. Type of assay: tissue-based.
In assay [4] the target is T3, Adrenergic receptor alpha-1 (Rattus norvegicus, UniProt P15823+P23944+P43140).
T3 sequence (P15823 whole entry): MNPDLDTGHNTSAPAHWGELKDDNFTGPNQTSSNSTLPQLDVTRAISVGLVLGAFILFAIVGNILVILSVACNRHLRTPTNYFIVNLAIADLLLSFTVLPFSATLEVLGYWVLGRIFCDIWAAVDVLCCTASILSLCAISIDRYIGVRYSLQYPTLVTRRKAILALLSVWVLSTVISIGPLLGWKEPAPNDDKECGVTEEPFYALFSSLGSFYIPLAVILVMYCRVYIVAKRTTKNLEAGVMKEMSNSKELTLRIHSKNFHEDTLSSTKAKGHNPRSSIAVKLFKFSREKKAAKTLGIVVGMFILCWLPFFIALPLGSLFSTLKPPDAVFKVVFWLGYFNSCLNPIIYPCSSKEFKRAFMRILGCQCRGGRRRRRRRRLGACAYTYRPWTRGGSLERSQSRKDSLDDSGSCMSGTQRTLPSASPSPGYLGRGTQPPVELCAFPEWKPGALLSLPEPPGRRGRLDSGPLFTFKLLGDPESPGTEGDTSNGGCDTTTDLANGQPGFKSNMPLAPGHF
T3 sequence (P23944 whole entry): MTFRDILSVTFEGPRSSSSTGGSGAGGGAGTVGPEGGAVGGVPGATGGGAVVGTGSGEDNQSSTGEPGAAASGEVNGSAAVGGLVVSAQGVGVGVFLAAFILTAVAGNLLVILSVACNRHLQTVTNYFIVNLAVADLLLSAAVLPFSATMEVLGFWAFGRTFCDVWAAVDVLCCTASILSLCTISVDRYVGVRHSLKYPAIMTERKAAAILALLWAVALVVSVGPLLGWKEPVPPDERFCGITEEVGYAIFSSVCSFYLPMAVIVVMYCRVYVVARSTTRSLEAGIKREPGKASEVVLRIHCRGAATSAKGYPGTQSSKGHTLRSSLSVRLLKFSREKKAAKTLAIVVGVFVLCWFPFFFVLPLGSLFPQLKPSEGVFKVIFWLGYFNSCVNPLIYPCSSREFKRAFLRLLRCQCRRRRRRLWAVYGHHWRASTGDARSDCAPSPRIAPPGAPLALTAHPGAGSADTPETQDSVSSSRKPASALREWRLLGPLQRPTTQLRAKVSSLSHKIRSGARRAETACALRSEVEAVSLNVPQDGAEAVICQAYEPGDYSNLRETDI
T3 sequence (P43140 whole entry): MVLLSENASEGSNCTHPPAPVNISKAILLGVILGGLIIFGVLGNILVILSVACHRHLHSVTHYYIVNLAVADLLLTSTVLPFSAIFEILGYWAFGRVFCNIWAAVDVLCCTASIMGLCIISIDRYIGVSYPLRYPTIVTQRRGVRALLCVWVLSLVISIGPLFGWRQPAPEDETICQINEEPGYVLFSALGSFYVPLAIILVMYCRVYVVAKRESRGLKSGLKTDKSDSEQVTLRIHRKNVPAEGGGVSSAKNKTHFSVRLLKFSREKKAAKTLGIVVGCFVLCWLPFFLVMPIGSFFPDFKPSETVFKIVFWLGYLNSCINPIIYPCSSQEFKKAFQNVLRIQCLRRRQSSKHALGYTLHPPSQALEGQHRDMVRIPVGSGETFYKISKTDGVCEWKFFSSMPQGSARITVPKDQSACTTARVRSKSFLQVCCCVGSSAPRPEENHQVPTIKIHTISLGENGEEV
Nature of the assay: Binding affinity against Alpha-1 adrenergic receptor in rat cortex using [3H]prazosin. Type of assay: tissue-based, Brain.

In assay [5] the test system is Mus musculus. Nature of the assay: Compound was tested for sedative activity in mice at the dose of 4 mg/kg perorally; active. Type of assay: functional, organism-based. Further details: dose 4 mg/kg.
Assay [6] relates to Mus musculus. Nature of the assay: 5-HT2 antagonist activity was assessed by the ability of compound to antagonise 5-HTP induced head twitches at 4 mg/Kg administered intraperitoneally in mice; Inactive. Type of assay: functional, organism-based.
The test system of assay [7] is Mus musculus. Nature of the assay: 5-HT2 antagonist activity was assessed by the ability of compound to antagonise mescaline induced scratching at 16 mg/Kg administered intraperitoneally in mice; Inactive. Type of assay: functional, organism-based.
Assay [8] deals with Mus musculus. Nature of the assay: 5-HT2 antagonist activity was assessed by the ability of compound to antagonise 5-HTP induced head twitches at 128 mg/Kg administered perorally in mice. Type of assay: functional. Particulars: po.
In assay [9] the test system is Mus musculus. Nature of the assay: 5-HT2 antagonist activity was assessed by the ability of compound to antagonise 5-HTP induced head twitches at 45 mg/Kg administered perorally in mice. Type of assay: functional. Particulars: po.
Assay [10] relates to Mus musculus. Nature of the assay: 5-HT2 antagonist activity was assessed by the ability of compound to antagonise mescaline induced scratching at 32 mg/Kg administered perorally in mice. Type of assay: functional. Particulars: po.
Assay [11] concerns Mus musculus. Nature of the assay: 5-HT2 antagonist activity was assessed by the ability of compound to antagonise mescaline induced scratching at 8 mg/Kg administered perorally in mice. Type of assay: functional. As to conditions: po.

The source made the active and inactive calls. The calls are words filed in the database; no cut-off is given here.

D(2) dopamine receptor, sequence (P61169 whole entry): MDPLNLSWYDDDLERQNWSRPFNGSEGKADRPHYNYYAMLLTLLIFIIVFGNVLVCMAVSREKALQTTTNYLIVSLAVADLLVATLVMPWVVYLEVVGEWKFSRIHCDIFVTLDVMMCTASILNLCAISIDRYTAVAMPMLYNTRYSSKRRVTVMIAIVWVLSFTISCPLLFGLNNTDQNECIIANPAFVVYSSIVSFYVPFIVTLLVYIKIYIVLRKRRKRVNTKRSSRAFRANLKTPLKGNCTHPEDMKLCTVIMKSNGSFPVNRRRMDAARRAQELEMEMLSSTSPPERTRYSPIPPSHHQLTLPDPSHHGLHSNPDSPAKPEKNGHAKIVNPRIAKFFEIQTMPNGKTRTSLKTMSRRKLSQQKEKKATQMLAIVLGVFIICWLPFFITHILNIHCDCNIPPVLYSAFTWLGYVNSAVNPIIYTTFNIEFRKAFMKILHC

As for `COc1ccccc1N1CCN(CCCCc2ccc3c(c2)oc(=O)n3CCN2CCC(C(=O)c3ccc(F)cc3)CC2)CC1`, the Ki in assay [1] was found to be 2 nM; in [2], 75 nM; in [3], 16 nM; at D(2) dopamine receptor, 0.5 nM.
Consider `COc1ccccc1N1CCN(CCCCc2ccc3c(c2)sc(=O)n3CCN2CCC(=C(c3ccc(F)cc3)c3ccc(F)cc3)CC2)CC1`, for which the Ki in [1] stood at 5 nM; in [2], 110 nM; in [3] it was 7 nM; in assay [4], 5 nM; at D(2) dopamine receptor, 5 nM.
`O=C(c1ccc(F)cc1)C1CCN(CCn2c(=O)sc3cc(CCCCN4CCN(c5cccc(C(F)(F)F)c5)CC4)ccc32)CC1`: the Ki is 70 nM in [1]; above 10000 nM in [2]; 50 nM in assay [3]; 1000 nM in [4]; 30 nM on D(2) dopamine receptor.
`COc1ccccc1N1CCN(CCCc2ccc3c(c2)sc(=O)n3CCN2CCC(C(=O)c3ccc(F)cc3)CC2)CC1`: the Ki is 3 nM in assay [1], 70 nM in assay [2], 2 nM in assay [3] and 2 nM on D(2) dopamine receptor.
In the case of `COc1ccccc1N1CCN(CCc2ccc3c(c2)sc(=O)n3CCN2CCC(C(=O)c3ccc(F)cc3)CC2)CC1`, the Ki in assay [1] amounted to 6000 nM; in [2], 50 nM; in [3], 20 nM; in [4], 1 nM; on D(2) dopamine receptor it was 5 nM.
`COc1ccccc1N1CCN(CCCCc2ccc3c(c2)OCC(=O)N3CCN2CCC(C(=O)c3ccc(F)cc3)CC2)CC1`: the inhibitory constant (Ki) stood at 18 nM in [1]; 30 nM in assay [2]; 14 nM in assay [3]; 2 nM in assay [4]; 0.06 nM at D(2) dopamine receptor.
For `COc1ccccc1N1CCN(CCCCc2ccc3c(c2)oc(=O)n3CCN2CCC(=C(c3ccc(F)cc3)c3ccc(F)cc3)CC2)CC1`, the Ki in assay [1] was determined as 98 nM; in assay [2], 460 nM; in assay [3] it was 335 nM; in [4], 5 nM; on D(2) dopamine receptor it was 3 nM.
For `O=C(c1ccc(F)cc1)C1CCN(CCn2c(=O)sc3cc(CCCCN4CCOCC4)ccc32)CC1`, the Ki in [1] is 700 nM; in assay [2], 20 nM; in assay [3], 0.6 nM; in [4], 40 nM; at D(2) dopamine receptor it was 100 nM. Further, the outcome with Mus musculus [5] was Active. The outcome in the assay on Mus musculus [6] and in the assay with Mus musculus [7] was inactive.
Turning to `COc1ccccc1N1CCN(CCCCc2ccc3c(c2)OCC(=O)N3CCN2CCC(=C(c3ccc(F)cc3)c3ccc(F)cc3)CC2)CC1`, the Ki was determined as 49 nM in assay [1]; 250 nM in assay [2]; 120 nM in [3]; 13 nM in assay [4]; 1.4 nM on D(2) dopamine receptor.
With `COc1ccccc1N1CCN(CCCCc2ccc3c(c2)sc(=O)n3CCN2CCC(C(=O)c3ccc(F)cc3)CC2)CC1`, the Ki in assay [1] stood at 7 nM; in assay [2], 240 nM; in [3], 2 nM; in [4] it was 5 nM; on D(2) dopamine receptor, 1.2 nM. Further, in the assay with Mus musculus [8], the inhibition in vivo at 128 mg/kg amounted to 90%. In the assay with Mus musculus [9], this compound displayed an inhibition in vivo at 45 mg/kg of 50%. Also, the inhibition in vivo at 32 mg/kg in the assay with Mus musculus [10] was 70%. In addition, in the assay with Mus musculus [11], the inhibition in vivo at 8 mg/kg was determined as 86%.

These data come from ChEMBL document CHEMBL1130574, “5-HT1A and 5-HT2A ligands with anxiolytic and antipanic-like properties” (Bioorg Med Chem Lett, 1997).
